We go through 3 compounds from ChEMBL document CHEMBL5653631, “A Potent and Selective ULK1 Inhibitor Suppresses Autophagy and Sensitizes Cancer Cells to Nutrient Stress” (iScience, 2018).

A word on the inhibition: it is the drop in the measured response relative to a control, in per cent.

Assay [1] addresses Maternal embryonic leucine zipper kinase (Homo sapiens) (UniProt Q14680). The assay is described as follows: Inhibition of human recombinant MELK at 40 nM related to control ULK1.
The target of assay [2] is T1, Ephrin type-B receptor 3 (Homo sapiens) (UniProt P54753).
T1 sequence (whole entry): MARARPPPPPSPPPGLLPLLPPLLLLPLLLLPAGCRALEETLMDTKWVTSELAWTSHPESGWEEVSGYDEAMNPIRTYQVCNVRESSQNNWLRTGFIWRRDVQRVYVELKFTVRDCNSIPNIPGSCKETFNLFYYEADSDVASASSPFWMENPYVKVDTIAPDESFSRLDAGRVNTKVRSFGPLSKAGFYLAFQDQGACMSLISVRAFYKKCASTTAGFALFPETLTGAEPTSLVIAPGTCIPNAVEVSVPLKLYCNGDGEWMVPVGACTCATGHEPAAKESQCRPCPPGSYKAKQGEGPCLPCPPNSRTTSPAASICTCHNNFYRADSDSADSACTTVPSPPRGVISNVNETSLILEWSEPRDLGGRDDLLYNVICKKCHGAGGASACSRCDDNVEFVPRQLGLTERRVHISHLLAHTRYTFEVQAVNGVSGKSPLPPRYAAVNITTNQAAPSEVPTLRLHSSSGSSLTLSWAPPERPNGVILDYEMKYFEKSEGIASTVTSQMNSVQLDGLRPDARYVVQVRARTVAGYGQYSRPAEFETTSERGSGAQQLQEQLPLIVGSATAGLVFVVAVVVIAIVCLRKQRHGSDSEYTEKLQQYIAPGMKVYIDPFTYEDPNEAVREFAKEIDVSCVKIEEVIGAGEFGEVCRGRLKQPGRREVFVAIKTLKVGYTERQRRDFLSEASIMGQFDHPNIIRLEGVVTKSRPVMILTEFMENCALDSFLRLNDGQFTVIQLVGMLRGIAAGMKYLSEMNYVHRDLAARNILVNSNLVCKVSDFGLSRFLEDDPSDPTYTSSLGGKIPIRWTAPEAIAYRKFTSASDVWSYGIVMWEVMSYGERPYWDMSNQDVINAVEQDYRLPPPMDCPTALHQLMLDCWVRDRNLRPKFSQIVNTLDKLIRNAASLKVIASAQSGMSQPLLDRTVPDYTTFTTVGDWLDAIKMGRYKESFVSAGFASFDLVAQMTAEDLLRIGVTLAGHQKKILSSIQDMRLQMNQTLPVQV
Put plainly: Inhibition of human recombinant EphB3 at 40 nM related to control ULK1.

Assay [3] deals with T2, Serine/threonine-protein kinase DCLK2 (Homo sapiens) (UniProt Q8N568).
T2 sequence (whole entry): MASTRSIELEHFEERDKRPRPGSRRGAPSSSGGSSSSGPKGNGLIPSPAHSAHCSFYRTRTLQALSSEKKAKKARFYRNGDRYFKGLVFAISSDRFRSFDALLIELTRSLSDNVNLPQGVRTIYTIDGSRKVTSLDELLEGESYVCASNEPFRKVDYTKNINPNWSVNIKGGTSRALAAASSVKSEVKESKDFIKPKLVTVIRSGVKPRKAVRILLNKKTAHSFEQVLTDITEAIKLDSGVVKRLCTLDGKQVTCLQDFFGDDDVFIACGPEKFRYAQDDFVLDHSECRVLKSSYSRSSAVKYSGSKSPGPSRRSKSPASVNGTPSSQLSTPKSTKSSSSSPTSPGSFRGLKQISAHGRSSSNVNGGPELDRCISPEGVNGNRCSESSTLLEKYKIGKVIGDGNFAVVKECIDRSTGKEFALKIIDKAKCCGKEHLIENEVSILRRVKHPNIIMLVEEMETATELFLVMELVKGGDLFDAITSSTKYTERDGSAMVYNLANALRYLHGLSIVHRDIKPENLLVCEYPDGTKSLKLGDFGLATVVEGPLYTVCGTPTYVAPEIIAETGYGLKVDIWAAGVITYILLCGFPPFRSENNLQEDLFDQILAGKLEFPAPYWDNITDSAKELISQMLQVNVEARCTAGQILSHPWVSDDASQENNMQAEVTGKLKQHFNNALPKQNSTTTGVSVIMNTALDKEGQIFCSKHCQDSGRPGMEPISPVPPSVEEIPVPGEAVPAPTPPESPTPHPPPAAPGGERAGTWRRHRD
The assay is described as follows: Inhibition of human recombinant DCAMKL2 at 500 nM in presence of ATP by radiometric assay relative to control.

The target of assay [4] is Ribosomal protein S6 kinase alpha-5 (Homo sapiens) (UniProt O75582). The assay is described as follows: Inhibition of human recombinant MSK1 at 500 nM in presence of ATP by radiometric assay relative to control.
Chain of Ribosomal protein S6 kinase alpha-5 (Homo sapiens) (O75582 whole entry, looked up): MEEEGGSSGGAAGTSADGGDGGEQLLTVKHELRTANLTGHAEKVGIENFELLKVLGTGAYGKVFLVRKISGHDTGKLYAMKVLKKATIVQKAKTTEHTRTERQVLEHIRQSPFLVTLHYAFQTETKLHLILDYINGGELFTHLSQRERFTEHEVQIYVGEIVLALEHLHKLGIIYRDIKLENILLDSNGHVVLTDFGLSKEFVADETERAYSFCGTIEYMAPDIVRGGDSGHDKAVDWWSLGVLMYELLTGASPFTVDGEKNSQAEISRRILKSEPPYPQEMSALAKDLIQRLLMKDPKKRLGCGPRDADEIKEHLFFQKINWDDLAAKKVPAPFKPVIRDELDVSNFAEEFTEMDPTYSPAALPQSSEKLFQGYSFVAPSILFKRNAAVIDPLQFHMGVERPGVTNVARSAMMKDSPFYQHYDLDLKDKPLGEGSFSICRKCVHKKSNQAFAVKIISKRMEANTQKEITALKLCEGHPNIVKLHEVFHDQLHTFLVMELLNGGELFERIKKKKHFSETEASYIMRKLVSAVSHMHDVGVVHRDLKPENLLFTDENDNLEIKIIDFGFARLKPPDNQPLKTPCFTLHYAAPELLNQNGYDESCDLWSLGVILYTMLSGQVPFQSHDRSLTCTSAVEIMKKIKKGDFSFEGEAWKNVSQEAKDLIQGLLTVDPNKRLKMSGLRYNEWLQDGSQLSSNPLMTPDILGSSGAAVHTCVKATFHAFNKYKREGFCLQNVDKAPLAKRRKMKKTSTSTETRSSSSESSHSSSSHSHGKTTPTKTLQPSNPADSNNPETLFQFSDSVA
Assay [5] deals with Serine/threonine-protein kinase Chk2 (Homo sapiens) (UniProt O96017). The assay is described as follows: Inhibition of human recombinant CHK2 at 500 nM in presence of ATP by radiometric assay relative to control.
Chain of Serine/threonine-protein kinase Chk2 (Homo sapiens) (O96017 whole entry): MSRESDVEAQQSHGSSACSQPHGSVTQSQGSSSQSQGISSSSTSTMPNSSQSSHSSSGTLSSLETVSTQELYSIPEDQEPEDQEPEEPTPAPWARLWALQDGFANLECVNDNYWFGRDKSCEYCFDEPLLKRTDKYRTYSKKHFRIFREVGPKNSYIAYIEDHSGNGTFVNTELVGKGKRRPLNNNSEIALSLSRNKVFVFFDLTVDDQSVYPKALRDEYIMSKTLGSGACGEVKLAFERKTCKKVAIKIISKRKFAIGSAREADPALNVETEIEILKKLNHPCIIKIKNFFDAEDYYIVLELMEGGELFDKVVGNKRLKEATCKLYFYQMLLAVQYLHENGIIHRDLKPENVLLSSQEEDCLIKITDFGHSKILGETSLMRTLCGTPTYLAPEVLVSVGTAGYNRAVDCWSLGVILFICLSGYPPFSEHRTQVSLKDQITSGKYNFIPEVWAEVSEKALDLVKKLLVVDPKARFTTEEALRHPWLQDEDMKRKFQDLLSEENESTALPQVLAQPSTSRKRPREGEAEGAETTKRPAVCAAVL
Assay [6] has as its target T3, Serine/threonine-protein kinase tousled-like 1 (Homo sapiens) (UniProt Q9UKI8).
T3 sequence (whole entry): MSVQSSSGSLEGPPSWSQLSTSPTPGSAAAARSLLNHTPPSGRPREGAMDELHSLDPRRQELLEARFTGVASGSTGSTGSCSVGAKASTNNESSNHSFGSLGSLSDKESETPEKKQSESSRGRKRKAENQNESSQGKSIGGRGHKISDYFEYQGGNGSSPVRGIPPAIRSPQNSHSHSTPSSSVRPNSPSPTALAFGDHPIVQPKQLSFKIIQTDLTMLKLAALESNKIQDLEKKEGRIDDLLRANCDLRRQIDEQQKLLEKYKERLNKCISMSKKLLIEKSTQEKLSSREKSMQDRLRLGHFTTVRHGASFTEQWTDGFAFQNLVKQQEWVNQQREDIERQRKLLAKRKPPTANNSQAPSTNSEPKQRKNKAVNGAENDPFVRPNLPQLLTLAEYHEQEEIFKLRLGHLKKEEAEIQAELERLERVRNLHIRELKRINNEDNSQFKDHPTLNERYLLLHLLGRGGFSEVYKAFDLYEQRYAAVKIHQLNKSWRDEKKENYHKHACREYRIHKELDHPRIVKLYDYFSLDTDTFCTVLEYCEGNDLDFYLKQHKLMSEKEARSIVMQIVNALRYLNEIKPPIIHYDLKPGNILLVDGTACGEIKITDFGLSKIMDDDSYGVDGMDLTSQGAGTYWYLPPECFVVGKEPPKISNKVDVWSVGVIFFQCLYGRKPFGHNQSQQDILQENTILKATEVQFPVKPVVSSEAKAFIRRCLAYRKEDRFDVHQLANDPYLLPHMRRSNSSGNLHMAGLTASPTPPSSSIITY
The assay is described as follows: Inhibition of human recombinant TLK1 at 15 nM in presence of ATP by radiometric assay relative to control.

Assay [7] deals with Serine/threonine-protein kinase WNK2 (Homo sapiens) (UniProt Q9Y3S1). Put plainly: Inhibition of human recombinant Wnk2 at 15 nM in presence of ATP by radiometric assay relative to control.
Chain of Serine/threonine-protein kinase WNK2 (Homo sapiens) (Q9Y3S1 whole entry): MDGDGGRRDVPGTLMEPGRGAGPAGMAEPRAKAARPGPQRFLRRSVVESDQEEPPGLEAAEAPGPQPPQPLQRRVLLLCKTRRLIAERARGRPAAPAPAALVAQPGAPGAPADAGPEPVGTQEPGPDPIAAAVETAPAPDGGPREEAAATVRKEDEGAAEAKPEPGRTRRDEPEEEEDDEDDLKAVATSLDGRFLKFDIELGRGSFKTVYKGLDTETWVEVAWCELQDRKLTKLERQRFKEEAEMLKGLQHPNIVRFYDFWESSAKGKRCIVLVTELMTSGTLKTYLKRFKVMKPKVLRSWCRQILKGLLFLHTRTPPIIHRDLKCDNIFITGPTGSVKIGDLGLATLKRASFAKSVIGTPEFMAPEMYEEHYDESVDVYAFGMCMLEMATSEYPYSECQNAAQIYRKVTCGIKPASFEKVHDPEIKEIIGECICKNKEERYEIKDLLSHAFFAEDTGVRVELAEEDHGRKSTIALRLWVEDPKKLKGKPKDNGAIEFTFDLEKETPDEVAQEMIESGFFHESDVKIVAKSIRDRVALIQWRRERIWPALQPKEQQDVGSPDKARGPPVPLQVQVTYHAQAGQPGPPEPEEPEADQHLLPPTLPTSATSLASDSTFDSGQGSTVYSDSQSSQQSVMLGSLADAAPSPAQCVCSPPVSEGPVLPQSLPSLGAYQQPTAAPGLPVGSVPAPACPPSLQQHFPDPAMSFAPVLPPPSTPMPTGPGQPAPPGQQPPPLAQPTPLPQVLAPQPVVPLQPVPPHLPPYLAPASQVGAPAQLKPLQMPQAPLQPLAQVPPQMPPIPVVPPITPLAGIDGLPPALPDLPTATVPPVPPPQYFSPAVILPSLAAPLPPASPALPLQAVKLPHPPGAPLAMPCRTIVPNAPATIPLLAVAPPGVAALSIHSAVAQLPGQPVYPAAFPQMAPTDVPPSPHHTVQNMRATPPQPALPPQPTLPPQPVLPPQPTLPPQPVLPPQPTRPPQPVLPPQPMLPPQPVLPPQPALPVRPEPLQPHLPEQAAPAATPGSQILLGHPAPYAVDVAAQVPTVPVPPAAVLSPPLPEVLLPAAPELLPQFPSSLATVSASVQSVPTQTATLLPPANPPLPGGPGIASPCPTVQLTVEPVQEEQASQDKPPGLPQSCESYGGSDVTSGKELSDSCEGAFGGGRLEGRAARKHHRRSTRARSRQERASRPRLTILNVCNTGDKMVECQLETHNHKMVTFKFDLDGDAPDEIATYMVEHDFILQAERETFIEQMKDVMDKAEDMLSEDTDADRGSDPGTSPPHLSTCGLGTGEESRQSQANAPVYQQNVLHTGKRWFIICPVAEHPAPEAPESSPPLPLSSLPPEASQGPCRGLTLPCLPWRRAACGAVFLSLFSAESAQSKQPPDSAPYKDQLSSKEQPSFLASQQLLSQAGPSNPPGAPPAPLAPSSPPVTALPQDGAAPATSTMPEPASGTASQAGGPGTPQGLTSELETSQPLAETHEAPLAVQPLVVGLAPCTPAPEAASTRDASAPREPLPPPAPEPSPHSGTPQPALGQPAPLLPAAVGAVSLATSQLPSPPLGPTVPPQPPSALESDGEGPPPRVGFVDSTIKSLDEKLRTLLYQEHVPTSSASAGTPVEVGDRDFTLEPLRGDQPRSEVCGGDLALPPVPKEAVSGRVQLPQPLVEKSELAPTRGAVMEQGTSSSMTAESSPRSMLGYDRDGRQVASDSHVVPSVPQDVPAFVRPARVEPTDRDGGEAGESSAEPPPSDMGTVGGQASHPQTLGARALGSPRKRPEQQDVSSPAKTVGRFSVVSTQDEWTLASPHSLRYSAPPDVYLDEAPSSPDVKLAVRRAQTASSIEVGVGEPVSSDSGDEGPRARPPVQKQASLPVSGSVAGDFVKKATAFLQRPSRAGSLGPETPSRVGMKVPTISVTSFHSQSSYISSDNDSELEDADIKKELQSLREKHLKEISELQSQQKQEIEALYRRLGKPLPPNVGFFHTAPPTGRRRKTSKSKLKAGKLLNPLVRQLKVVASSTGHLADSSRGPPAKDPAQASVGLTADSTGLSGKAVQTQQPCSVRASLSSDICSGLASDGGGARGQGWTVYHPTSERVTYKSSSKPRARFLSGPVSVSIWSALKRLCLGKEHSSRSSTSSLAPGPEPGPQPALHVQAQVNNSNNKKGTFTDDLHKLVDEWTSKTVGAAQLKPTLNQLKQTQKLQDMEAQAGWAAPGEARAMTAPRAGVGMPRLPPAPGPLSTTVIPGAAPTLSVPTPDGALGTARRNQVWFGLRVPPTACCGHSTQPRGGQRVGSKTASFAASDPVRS

Chain of Maternal embryonic leucine zipper kinase (Homo sapiens) (Q14680 whole entry, looked up): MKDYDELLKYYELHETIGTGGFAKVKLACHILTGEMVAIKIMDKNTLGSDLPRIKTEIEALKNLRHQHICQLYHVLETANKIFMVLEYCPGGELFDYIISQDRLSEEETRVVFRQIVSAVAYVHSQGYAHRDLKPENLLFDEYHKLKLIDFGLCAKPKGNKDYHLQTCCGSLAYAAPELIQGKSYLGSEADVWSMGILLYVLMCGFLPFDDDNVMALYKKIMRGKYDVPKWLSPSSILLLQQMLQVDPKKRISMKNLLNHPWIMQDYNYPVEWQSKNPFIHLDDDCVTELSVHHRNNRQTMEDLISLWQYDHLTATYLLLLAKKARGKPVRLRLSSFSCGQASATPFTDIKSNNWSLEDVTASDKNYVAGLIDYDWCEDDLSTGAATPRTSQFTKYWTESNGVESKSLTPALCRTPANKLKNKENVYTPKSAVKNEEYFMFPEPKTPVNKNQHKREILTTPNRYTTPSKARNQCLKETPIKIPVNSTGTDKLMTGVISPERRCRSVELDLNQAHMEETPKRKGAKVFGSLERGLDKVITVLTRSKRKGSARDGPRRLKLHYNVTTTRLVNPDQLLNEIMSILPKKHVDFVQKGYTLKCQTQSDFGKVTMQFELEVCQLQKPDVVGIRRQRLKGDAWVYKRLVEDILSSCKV

On to `O=C(N[C@@H](C1CC1)C(F)(F)F)c1cc(-c2cnn3cc(-c4ccc(F)cc4)cnc23)cs1`, for which the fold change (FC) in assay [1] came out at 0.27; in assay [2], 0.
Take `CNC(=O)c1ccccc1Oc1nc(Nc2cc(OC)c(OC)c(OC)c2)ncc1Br`: the figures for the inhibition in assay [3], in assay [4] and in assay [5] were 0%, 11% and 0%, respectively.
Take `CC(C)[C@H](NC(=O)c1cc(-c2cnn3cc(-c4ccc(OCCN5CCCCC5)cc4)cnc23)cs1)C(F)(F)F`: the inhibition turned out to be 0% in assay [6] and 2% in assay [7].
